We go through 17 molecules from article PMC3079779 (Toxicology and applied pharmacology, 2011).

The target of series [1] is human KV1.3 voltage gated K+ channel (Homo sapiens, UniProt P22001). The series is described as follows: KV1.3 thallium influx assay in KV1.3 stably transfected CHO DUKX cells. The conditions noted are these: for KV 1.3 IC50 / KV 1.3 Efficacy (inhibition of thallium influx as a % of positive control): thallium influx in KV1.3 cells; for KV 1.3 IC50: mean ± SD from two to three experiments; for Selectivity Fold (hERG over KV1.3): potency difference KV1.3 IC50 / hERG IC50, thallium influx assays; for KV 1.3 Efficacy (inhibition of thallium influx as a % of positive control): relative to 1 μM psoralen. (Block of hERG is tested as a sign of cardiac risk.)
human KV1.3 voltage gated K+ channel, sequence (P22001 whole entry): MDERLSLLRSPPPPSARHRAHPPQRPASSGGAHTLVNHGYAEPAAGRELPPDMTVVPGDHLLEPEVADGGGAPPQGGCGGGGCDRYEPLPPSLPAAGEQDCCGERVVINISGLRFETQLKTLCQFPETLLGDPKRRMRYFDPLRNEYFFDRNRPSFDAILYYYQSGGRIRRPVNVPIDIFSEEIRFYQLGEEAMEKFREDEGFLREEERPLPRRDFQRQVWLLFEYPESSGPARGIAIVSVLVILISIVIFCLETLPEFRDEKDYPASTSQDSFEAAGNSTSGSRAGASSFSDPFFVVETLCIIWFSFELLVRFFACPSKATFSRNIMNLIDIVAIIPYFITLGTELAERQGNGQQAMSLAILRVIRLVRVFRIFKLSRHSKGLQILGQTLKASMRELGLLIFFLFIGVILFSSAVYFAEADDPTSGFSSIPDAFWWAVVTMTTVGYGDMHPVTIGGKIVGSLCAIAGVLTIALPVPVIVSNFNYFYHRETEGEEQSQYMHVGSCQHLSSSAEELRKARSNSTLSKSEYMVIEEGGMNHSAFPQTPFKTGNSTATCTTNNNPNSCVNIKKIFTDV

Series [2] concerns the target T1, hERG channel (Homo sapiens, UniProt Q12809). Briefly: Automated whole cell patch clamp, hERG tail current in hERG CHO-K1 cells. On the technique in general: The patch-clamp technique gives a direct electrical read-out from membranes.
Series [3] deals with T1, hERG channel.
A further series deals with wild type U-2 OS cells. Briefly: FluxOR thallium influx assay in wild type. In kind it is cell-based, human. The note with it: non-hERG transduced cells.
Series [4] has as its target T1, hERG channel. Briefly: FluxOR thallium influx assay in hERG transduced U-2 OS cells. The conditions noted are these: for Confirmation Efficacy (inhibition of thallium influx as a % of positive control): confirmation study, hERG transduced cells, mean ± SD of three experiments; for IC50 in the thallium influx assay (QAC series follow-up): quaternary ammonium compound series and digitonin control, hERG cells.

For series [5], the target named is T1, hERG channel. This is another data set of the same source.
A further series in a line: in vitro. The series is classed as cell-based, human. The conditions noted are these: human, hERG transduced U-2 OS cells.
Series [6] relates to hERG transduced U-2 OS cells. Briefly: in vitro. In kind it is cell-based, human. The conditions noted are these: for IC50: read-out: Cytotoxicity IC50 (cell viability, intracellular ATP content), up to 92 μM.
The target of series [7] is T2, KV1.3 versus hERG (Homo sapiens, UniProt P22001). Briefly: KV1.3 thallium influx assay in KV1.3 stably transfected CHO DUKX cells. The note with it: human.
T2 sequence (P22001 whole entry): as above
For series [8], the target named is T2, KV1.3 versus hERG. Briefly: in vitro.
[9] abbreviates: automated whole cell patch clamp, hERG tail current, hERG CHO-K1 cells, room temperature.
Setting [10] is: 30-minute treatment, hERG transduced U-2 OS cells.
[11] abbreviates: read-out: Patch clamp IC50, automated whole cell patch clamp, hERG tail current, hERG CHO-K1 cells, room temperature.

“Also recorded” adds a separate entry of the source. Like-named read-outs stand apart in the source and are kept apart here.

T1 sequence (Q12809 whole entry): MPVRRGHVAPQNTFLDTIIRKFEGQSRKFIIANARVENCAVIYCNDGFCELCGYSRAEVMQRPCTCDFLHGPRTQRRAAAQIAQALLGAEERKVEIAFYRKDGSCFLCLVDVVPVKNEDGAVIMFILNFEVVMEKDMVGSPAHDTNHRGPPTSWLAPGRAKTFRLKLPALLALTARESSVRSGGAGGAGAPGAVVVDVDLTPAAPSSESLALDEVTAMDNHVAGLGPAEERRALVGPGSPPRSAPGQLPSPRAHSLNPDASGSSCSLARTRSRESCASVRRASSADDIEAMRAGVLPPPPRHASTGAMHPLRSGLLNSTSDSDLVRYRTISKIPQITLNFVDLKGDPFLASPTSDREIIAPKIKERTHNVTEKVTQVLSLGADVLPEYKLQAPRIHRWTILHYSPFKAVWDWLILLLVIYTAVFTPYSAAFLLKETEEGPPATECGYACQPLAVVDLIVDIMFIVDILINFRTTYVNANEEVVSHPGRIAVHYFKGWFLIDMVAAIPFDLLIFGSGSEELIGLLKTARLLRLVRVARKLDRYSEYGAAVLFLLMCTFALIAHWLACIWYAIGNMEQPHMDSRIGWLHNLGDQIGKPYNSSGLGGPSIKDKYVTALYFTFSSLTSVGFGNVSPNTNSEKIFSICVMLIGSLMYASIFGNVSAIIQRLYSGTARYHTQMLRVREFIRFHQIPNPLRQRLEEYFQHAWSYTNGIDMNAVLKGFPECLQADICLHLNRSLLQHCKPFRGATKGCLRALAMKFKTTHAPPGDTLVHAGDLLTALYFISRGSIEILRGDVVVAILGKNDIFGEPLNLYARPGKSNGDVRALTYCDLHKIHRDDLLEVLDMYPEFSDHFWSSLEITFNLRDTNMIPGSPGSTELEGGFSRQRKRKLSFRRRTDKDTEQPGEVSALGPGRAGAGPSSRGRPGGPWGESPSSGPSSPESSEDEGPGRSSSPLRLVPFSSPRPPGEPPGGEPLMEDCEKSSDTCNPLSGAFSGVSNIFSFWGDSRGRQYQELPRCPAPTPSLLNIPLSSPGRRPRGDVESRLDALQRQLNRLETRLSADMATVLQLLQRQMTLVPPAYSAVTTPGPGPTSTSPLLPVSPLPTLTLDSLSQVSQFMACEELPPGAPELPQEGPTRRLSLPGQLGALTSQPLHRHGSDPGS

With `N=C(Nc1ccccc1)Nc1ccccc1` [1,3-diphenylguanidine], in [1], the “KV 1.3 IC50” value is “Inactive”.
In the case of `Nc1ccc2cc3ccccc3cc2c1` [2-aminoanthracene], the IC50 (as a rule, the concentration needed to halve the response being measured) on hERG channel [2] was over 100 µM. At hERG channel [3] (human), the “qHTS (two runs) Efficacy (inhibition of thallium influx as a % of positive control)” value came to 61 ± 3%. Also, the “Inhibition of thallium influx in parental (wild type) cells” value in the series on wild type U-2 OS cells was “inhibitory effect”. Further, the “Confirmation Efficacy (inhibition of thallium influx as a % of positive control)” value at hERG channel [4] is given as 67 ± 19%.
`CCCCCCc1ccc(-c2ccc(C#N)cc2)cc1` [4-N-hexyl-4′-cyanobiphenyl, 4′-N-hexyl-4-biphenylcarbonitrile]: on hERG channel [3], the “Confirmation IC50 (thallium influx, hERG)” value was “Inactive” and inhibition was half-maximal at 8.2 ± 2.6 µM (IC50).
Turning to `O=C([O-])c1c(Cl)c(Cl)c(Cl)c(Cl)c1-c1c2cc(Br)c(=O)c(Br)c-2oc2c(Br)c([O-])c(Br)cc12.[Na+].[Na+]` [D&C red dye 27], at hERG channel [3], the “Confirmation Efficacy (inhibition of thallium influx as a % of positive control)” value came out at 173 ± 41%. Also, the “Inhibition of thallium influx in parental (wild type) cells” value with wild type U-2 OS cells was “inhibitory effect”. Besides, the IC50 on hERG channel [5] is over 100 µM.
`C[N+](C)(C)Cc1ccccc1` [benzyltrimethylammonium chloride]: on hERG channel [2] (setting [9]), the “Patch clamp IC50” value is “inactive”. Also, the “IC50 in the thallium influx assay (QAC series follow-up)” value at hERG channel [4] is “inactive”.
For `C[N+](C)(C)CCCCCCCCCC[N+](C)(C)C` [decamethonium dibromide], on hERG channel [2] (setting [9]), the “Patch clamp IC50” value is “inactive”. The “IC50 in the thallium influx assay (QAC series follow-up)” value on hERG channel [4] was “inactive”.
In the case of `C[C@@H]1CC[C@@]2(OC1)O[C@H]1[C@@H](O)[C@H]3[C@@H]4CC[C@H]5C[C@@H](O[C@@H]6O[C@H](CO)[C@H](O[C@@H]7O[C@H](CO)[C@@H](O)[C@H](O[C@@H]8OC[C@@H](O)[C@H](O)[C@H]8O)[C@H]7O[C@@H]7O[C@H](CO)[C@H](O)[C@H](O[C@@H]8O[C@H](CO)[C@@H](O)[C@H](O)[C@H]8O)[C@H]7O)[C@H](O)[C@H]6O)[C@H](O)C[C@]5(C)[C@H]4CC[C@]3(C)[C@H]1[C@@H]2C` [digitonin, reference compound], the “Inhibitory effect on hERG channel activity in the patch clamp experiment” value at hERG channel [2] (at 1 μM (the highest noncytotoxic concentration)) was “no inhibitory effect”.
On to `CCCCCCCCCCCC[N+](C)(C)CCOc1ccccc1` [domiphen bromide], for which the IC50 at hERG channel [2] came to 1.5 µM. For the same molecule, it took 65 µM to reach half-maximal inhibition in the series “in vitro” (IC50 at 30 min). Further, in series [6] (setting [10]), the “Maximum inhibition of cell viability” value stood at 33%. Besides, in [1], the IC50 was determined as 5.2 ± 0.6 µM, the “Selectivity Fold (hERG over KV1.3)” value is listed as “no selectivity” and the “KV 1.3 Efficacy (inhibition of thallium influx as a % of positive control)” value is 102 ± 22%. In addition, the selectivity ratio at 2 min on KV1.3 versus hERG [7] turned out to be 1.2.
With `Clc1ccc(COC(Cn2ccnc2)c2ccc(Cl)cc2Cl)cc1` (stereo not drawn) [econazole nitrate, reference compound], in series [1], the IC50 stood at 30 ± 2 µM and the “KV 1.3 Efficacy (inhibition of thallium influx as a % of positive control)” value was determined as 104 ± 10%.
In the case of `CN(C)c1ccc(C(=C2C=CC(=[N+](C)C)C=C2)c2ccccc2)cc1.CN(C)c1ccc(C(=C2C=CC(=[N+](C)C)C=C2)c2ccccc2)cc1.O=C(O)C(=O)O.O=C([O-])C(=O)O.O=C([O-])C(=O)O` [malachite green oxalate], the IC50 on hERG channel [2] (setting [11]) was 1.9 µM. The “Maximum inhibition of cell viability” value in series [6] amounted to 72%. The IC50 in [6] (setting [10]) came out at 31 µM. Further, on hERG channel [3], the “qHTS (two runs) Efficacy (inhibition of thallium influx as a % of positive control)” value was 97 ± 3%. Moreover, the “Confirmation Efficacy (inhibition of thallium influx as a % of positive control)” value at hERG channel [4] is 108 ± 7%. Further, in series [1], the “Selectivity Fold (hERG over KV1.3)” value is on record as 6.5 fold, the “KV 1.3 IC50” value is “either IC50 values >30 μM or were inactive” and the “KV 1.3 Efficacy (inhibition of thallium influx as a % of positive control)” value is given as 89%.
With `Clc1ccc(C(c2ccccc2Cl)C(Cl)(Cl)Cl)cc1` (stereo not drawn) [o,p′-DDT, 1,1,1-trichloro-2-(2-chlorophenyl)-2-(4-chlorophenyl)ethane], the selectivity ratio on KV1.3 versus hERG [8] came to 1.6. The molecule further came in with an IC50 against hERG channel [2] of 2.6 µM. For the same molecule, the “qHTS (two runs) Efficacy (inhibition of thallium influx as a % of positive control)” value at hERG channel [3] (human) came to 56 ± 2%. For the same molecule, the “Confirmation Efficacy (inhibition of thallium influx as a % of positive control)” value at hERG channel [4] is reported as 58 ± 8%. For the same molecule, in series [1], half-maximal inhibition (IC50) required 35 µM, the “Selectivity Fold (hERG over KV1.3)” value is recorded as “no selectivity”, the “KV 1.3 IC50” value is “either IC50 values >30 μM or were inactive” and the “KV 1.3 Efficacy (inhibition of thallium influx as a % of positive control)” value amounted to 61%.
`C=C[C@H]1C[N@@]2CC[C@H]1C[C@@H]2[C@@H](O)c1ccnc2ccc(OC)cc12` [quinidine, reference compound]: the “KV 1.3 IC50” value in series [1] is “either IC50 values >30 μM or were inactive; also recorded: Inactive”.
Regarding `COC(=O)[C@H]1[C@H]2C[C@@H]3c4[nH]c5cc(OC)ccc5c4CCN3C[C@H]2C[C@@H](OC(=O)c2cc(OC)c(OC)c(OC)c2)[C@@H]1OC` [reserpine, reference compound], the IC50 against hERG channel [2] is 1.9 µM; at hERG channel [4] (Confirmation IC50 (thallium influx, hERG)), 4.9 ± 1.7 µM; on hERG channel [4] (qHTS (two runs) IC50) it was 7.5 ± 3.5 µM; in series [1], 58 ± 18 µM. In series [1], the “KV 1.3 IC50” value is “either IC50 values >30 μM or were inactive”. The “KV 1.3 Efficacy (inhibition of thallium influx as a % of positive control)” value in [1] is given as 78 ± 7%. Also, the selectivity ratio at 2 min on KV1.3 versus hERG [7] stood at 11.8.
Take `CCCCCCCC[N+](CCCCCCCC)(CCCCCCCC)CCCCCCCC.[Br-]` [tetra-n-octylammonium bromide]: the IC50 on hERG channel [2] (read-out: IC50 in the patch clamp assay, as stated in abstract) came to 0.08 µM. For the same molecule, the IC50 on hERG channel [2] (setting [11]) came to 0.082 µM. In addition, in series [6] (setting [10]), the “Maximum inhibition of cell viability” value worked out at 50% and the IC50 was 34 µM. For the same molecule, the “qHTS (two runs) Efficacy (inhibition of thallium influx as a % of positive control)” value on hERG channel [3] is 102 ± 4%. Further, the “Confirmation Efficacy (inhibition of thallium influx as a % of positive control)” value on hERG channel [4] was 100 ± 3%. For the same molecule, in [1], the “Selectivity Fold (hERG over KV1.3)” value was 42 fold and the “KV 1.3 Efficacy (inhibition of thallium influx as a % of positive control)” value is 72 ± 16%.
As to `COc1ccc(CCN(C)CCCC(C#N)(c2ccc(OC)c(OC)c2)C(C)C)cc1OC` (stereo not drawn) [verapamil, reference compound], the “KV 1.3 Efficacy (inhibition of thallium influx as a % of positive control)” value in series [1] is listed as 88 ± 12%.
For tricresyl phosphate, at hERG channel [2] (setting [11]), the IC50 is 8.8 µM. For the same molecule, the “qHTS (two runs) Efficacy (inhibition of thallium influx as a % of positive control)” value at hERG channel [3] is recorded as 82 ± 11%. Moreover, the “Confirmation Efficacy (inhibition of thallium influx as a % of positive control)” value at hERG channel [4] came out at 68 ± 16%. Further, in [1], the “Selectivity Fold (hERG over KV1.3)” value was 2.7 fold and the “KV 1.3 Efficacy (inhibition of thallium influx as a % of positive control)” value turned out to be 68 ± 17%.
As for trixylenyl phosphate, at hERG channel [2] (setting [9]), the “Patch clamp IC50” value is recorded as “did not inhibit hERG channel activity”. Further, the IC50 at hERG channel [2] (setting [11]) is over 100 µM. On hERG channel [3], the “qHTS (two runs) Efficacy (inhibition of thallium influx as a % of positive control)” value came out at 67 ± 12%. Also, the “Confirmation Efficacy (inhibition of thallium influx as a % of positive control)” value on hERG channel [4] is 43 ± 15%.
